From article PMC10761696, “Avapritinib-based SAR studies unveil a binding pocket in KIT and PDGFRA” (Nature Communications, 2024)
Where “and” joins values, the source holds several entries; their conditions need not be identical. Identical values can stand only once. Like-named read-outs stand apart in the source and are kept apart here. Each block holds one compound with its values, some of them ahead of it.

Columns and labels:
SK-LMS-1 = assay: CellTiter-Glo (CTG) GR50, SK-LMS-1 control cell line; settings: for CTG GR50 SK-LMS-1: mean ± s.d., n = 3, control cell line; for CTG GR50 SK-LMS-1, single determinations: raw data of Supp. Tab. 2, independent experiments, unit from Supp. Tab. 2
ZR-75-1 = assay: CellTiter-Glo (CTG) EC50, ZR-75-1 breast cancer control cell line; assay type: cell-based, human; settings: Homo sapiens
Experimental: (§1) Cell line authenticity was confirmed by STR analysis at Eurofins Genomics. All cell lines were tested regularly for mycoplasma contamination using the Mycoplasmacheck Service at Eurofins Genomics. […] Following incubation for 24 h in a humidified atmosphere at 37 °C and 5% CO2, cells were treated with inhibitors in serial dilutions ranging from 30 µM down to 0.1 nM using an Echo650 acoustic liquid handler (Beckman Coulter). Cell viability was analyzed on day 5 using the CellTiter-Glo® assay (Promega) using 500 ms integration time. The obtained data were normalized to the plate positive control (30 µM staurosporine) and negative control (DMSO) and subsequently analyzed and fitted with the Quattro Software Suite (Quattro Research) using a four-parameter logistic model. As quality control, the Z’-factor was calculated from 16 positive and negative control values. Only assay results showing a Z’-factor ≥0.5 were used for further analysis. All experimental points were measured in duplicates for each plate and were independently replicated in at least three plates.

PDGFRA-D842V = target: T1, PDGFRA-D842V (Homo sapiens, UniProt P16234, D842V); assay: Activity-based HTRF KinEASE assay, PDGFRA-D842V; assay type: biochemical
T1 construct: purchased Invitrogen PV4203 (lot #2343231B)

T1-a-D842V = assay: CellTiter-Glo (CTG) GR50, T1-a-D842V; settings: cellular assay
GIST-48B = assay: CellTiter-Glo (CTG) GR50, GIST-48B control cell line (off-target toxicity)
MDA-MB-175VII = assay: CellTiter-Glo (CTG) EC50, MDA-MB-175VII breast cancer control cell line; assay type: cell-based, human
Experimental: as §1

KIT-D816H = KIT-D816H (Homo sapiens, UniProt P10721, D816H); assay: Activity-based HTRF KinEASE assay, KIT-D816H; assay type: biochemical
MDR1 = assay: MDCKII-MDR1 permeability assay; settings: dog; for recovery at 2 h, 10 µM: MDCKII-MDR1, assay conc. 10
[1] = MDCKII-MDR1 permeability assay; settings: dog; for Papp B→A at 2 h, 10 µM: MDCK-MDR1
GIST-T1 = assay: CellTiter-Glo (CTG) GR50, GIST-T1; settings: Homo sapiens, GISTT1, read-out: KIT CTG GR50 GIST-T1, mean ± s.d., n ≥ 3; GR50 half-maximal growth inhibition rate
T1-a-G680R = assay: CellTiter-Glo (CTG) GR50, T1-a-G680R; settings: raw data of Table 1, independent experiments; unit from Table 1
T1-V654A = assay: CellTiter-Glo (CTG) GR50, T1-V654A; settings: Homo sapiens
T1-a-5258 = assay: CellTiter-Glo (CTG) GR50, T1-a-5258; settings: Homo sapiens
[2] = system: D842V-mutant gastrointestinal stromal tumors (GIST); settings: patients with D842V-mutant GIST; ref NAVIGATOR trial; cited from earlier work
T1-D816E = assay: CellTiter-Glo (CTG) GR50, T1-D816E; settings: mean ± s.d., n ≥ 3
T1-T670I = assay: CellTiter-Glo (CTG) GR50, T1-T670I; settings: Homo sapiens, read-out: KIT CTG GR50 T1-T670I, mean ± s.d., n ≥ 3
MDCKII-MDR1 cells = assay: MDCKII-MDR1 permeability assay; settings: for permeability class of reference compound (Comment): reference compounds of the MDCKII-MDR1 assay
[3] = Homo sapiens, MDA-MB-175-VII, read-out: CTG EC50 MDA-MB-175VII, single determinations, raw data of Supp. Tab. 2, independent experiments, unit from Supp. Tab. 2
[4] = MDCK-MDR1, MDCKII-MDR1 (Papp A→B), at 10 µM, 2 h, 37 °C, unit inferred

T1 sequence (P16234 24-1089 D842V): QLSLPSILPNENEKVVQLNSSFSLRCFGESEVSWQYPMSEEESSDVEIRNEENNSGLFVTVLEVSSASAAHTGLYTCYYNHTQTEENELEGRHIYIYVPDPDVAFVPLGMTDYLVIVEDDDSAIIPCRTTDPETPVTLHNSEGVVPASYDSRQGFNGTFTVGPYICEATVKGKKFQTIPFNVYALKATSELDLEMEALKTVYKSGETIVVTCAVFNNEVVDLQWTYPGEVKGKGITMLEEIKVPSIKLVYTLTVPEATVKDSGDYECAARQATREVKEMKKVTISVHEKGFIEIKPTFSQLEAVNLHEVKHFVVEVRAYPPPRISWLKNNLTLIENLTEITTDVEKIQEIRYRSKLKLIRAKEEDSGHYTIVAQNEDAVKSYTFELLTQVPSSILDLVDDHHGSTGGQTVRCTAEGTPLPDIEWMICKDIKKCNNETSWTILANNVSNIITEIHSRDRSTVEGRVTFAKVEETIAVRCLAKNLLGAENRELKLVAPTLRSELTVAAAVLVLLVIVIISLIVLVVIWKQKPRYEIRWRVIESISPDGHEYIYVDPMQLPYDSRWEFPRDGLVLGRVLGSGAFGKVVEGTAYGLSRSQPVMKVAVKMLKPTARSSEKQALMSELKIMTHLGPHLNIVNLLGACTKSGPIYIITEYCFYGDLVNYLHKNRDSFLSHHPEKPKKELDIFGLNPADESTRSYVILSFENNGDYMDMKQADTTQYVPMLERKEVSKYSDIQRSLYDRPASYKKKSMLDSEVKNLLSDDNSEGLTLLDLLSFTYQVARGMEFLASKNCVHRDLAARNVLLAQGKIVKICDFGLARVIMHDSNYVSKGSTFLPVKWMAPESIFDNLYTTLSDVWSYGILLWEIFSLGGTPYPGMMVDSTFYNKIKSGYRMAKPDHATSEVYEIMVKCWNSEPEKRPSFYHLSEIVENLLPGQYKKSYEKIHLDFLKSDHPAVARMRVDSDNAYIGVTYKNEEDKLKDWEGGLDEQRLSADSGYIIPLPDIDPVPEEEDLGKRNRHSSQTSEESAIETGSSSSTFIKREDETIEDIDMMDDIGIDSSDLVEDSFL
KIT-D816H, sequence (P10721 26-976 D816H): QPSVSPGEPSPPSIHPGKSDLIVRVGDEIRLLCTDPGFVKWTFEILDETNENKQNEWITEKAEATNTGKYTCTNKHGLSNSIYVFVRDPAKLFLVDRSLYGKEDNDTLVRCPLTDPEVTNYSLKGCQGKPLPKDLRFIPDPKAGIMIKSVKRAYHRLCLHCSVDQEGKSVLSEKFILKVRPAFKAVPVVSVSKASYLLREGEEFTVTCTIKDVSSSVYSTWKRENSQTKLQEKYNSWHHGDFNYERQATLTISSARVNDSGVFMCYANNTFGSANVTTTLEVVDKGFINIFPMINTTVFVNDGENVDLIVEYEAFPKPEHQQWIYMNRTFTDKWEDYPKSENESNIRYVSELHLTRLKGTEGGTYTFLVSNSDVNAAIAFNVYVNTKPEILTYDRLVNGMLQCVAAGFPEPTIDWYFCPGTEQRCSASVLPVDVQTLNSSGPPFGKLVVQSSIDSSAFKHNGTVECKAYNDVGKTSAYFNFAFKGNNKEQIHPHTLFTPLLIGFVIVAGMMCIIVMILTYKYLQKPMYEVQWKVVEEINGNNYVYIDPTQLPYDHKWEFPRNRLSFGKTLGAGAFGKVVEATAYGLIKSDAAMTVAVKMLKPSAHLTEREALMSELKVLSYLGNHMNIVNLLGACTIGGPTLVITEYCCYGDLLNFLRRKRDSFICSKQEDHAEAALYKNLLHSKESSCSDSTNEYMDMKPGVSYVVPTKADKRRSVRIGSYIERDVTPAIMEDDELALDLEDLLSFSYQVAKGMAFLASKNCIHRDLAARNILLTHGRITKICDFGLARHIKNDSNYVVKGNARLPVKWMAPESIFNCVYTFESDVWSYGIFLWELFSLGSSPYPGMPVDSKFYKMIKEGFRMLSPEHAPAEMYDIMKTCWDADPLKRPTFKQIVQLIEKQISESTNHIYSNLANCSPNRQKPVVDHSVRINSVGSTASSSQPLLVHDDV

EC50 (ZR-75-1; ZR-75-1, mean ± s.d., n = 3, control cell line, read-out: CTG EC50 ZR-75-1): ≥ 10 µM | EC50 (ZR-75-1; ZR-75-1, raw data of Supp. Tab. 2, independent experiments, unit from Supp. Tab. 2, read-out: CTG EC50 ZR-75-1, single determinations): ≥ 10 µM | IC50 (PDGFRA-D842V; mean ± s.d., n ≥ 3, ATP at KM (14 µM), read-out: HTRF IC50 PDGFRA-D842V): ~0.0002 µM and 0.0002 µM | IC50 (PDGFRA-D842V; raw data of Table 1, independent experiments 1-3, unit from Table 1, read-out: HTRF IC50 PDGFRA-D842V, single determinations): 0.0002 µM and 0.00015 µM and 0.00028 µM | EC50 (MDA-MB-175VII; Homo sapiens, MDA-MB-175-VII, read-out: CTG EC50 MDA-MB-175VII, mean ± s.d., n = 3, control cell line): ≥ 10 µM | EC50 (MDA-MB-175VII; [3]): ≥ 10 µM | IC50 (KIT-D816H; mean ± s.d., n ≥ 3, ATP at KM (12 µM), read-out: HTRF IC50 KIT-D816H): 0.002 ± 0.0001 µM | IC50 (KIT-D816H; raw data of Table 1, independent experiments, unit from Table 1, read-out: HTRF IC50 KIT-D816H, single determinations): 2.1 nM (2×) and 1.8 nM | efflux ratio at 2 h, 10 µM (MDR1; MDCK-MDR1): 0.13 | recovery at 2 h, 10 µM (MDR1; MDCK-MDR1, Recovery A->B): 81.4% | recovery at 2 h, 10 µM (MDR1; MDCK-MDR1, Recovery B->A): 63.6% | Papp B→A at 2 h, 10 µM [1]: 0.47 ×10⁻⁶ cm/s | Papp A→B at 2 h, 10 µM [1, 4]: 3.5 ×10⁻⁶ cm/s | Papp A→B at 2 h, 10 µM ([1]; MDCK-MDR1, Papp A->B, MDCKII-MDR1, assay conc. 10, apical to basolateral): 3.46 ×10⁻⁶ cm/s
Compound: Cn1cc(-c2cc3c(N4CCN(c5ncc([C@@](C)(NC(=O)c6ccccc6)c6ccc(F)cc6)cn5)CC4)ncnn3c2)cn1 [Compound 13]
CTG GR50 SK-LMS-1 (SK-LMS-1): 9.498 ± 0.869 µM and 9.498 µM | CTG GR50 SK-LMS-1, single determinations (SK-LMS-1): 8.494 µM and 10 µM | fold loss of potency compared to avapritinib, T1-a-D842V (T1-a-D842V): 3 fold | activity with respect to the control cell lines (GIST-48B; control cell lines (Table 1, Supplementary Table 2)): completely inactive | ratio GIST-48B/ T1-a-D842V (GIST-48B; ratio of GR50 values): 196 | GIST-48B/D842V (GIST-48B; ratio of GR50 values, source data sheet): 196 | GI50 (GIST-T1): 0.287 ± 0.176 µM

Compound: Cn1cc(-c2cc3c(N4CCN(c5ncc([C@@](C)(N)c6ccc(F)cc6)cn5)CC4)ncnn3c2)cn1 [ava (1), avapritinib]
CTG GR50 SK-LMS-1 (SK-LMS-1): 8.423 ± 2.731 µM and 8.423 µM | CTG GR50 SK-LMS-1, single determinations (SK-LMS-1): 5.269 µM and 10 µM | CTG GR50 T1-a-G680R, single determinations (T1-a-G680R): 1455 nM and 1460 nM | GI50 (T1-V654A; read-out: CTG GR50 T1-V654A, single determinations, raw data of Supp. Tab. 1, independent experiments, unit from Supp. Tab. 1): 0.256 µM | GI50 (T1-V654A; read-out: KIT CTG GR50 T1-V654A, mean ± s.d., n ≥ 3 (* n = 2 for ava)): 0.357 ± 0.142 µM | GI50 (T1-a-5258; read-out: CTG GR50 T1-a-5258, single determinations, raw data of Supp. Tab. 1, independent experiments, unit from Supp. Tab. 1): 0.57 µM | GI50 (T1-a-5258; read-out: PDGFRA CTG GR50 T1-a-5258, mean ± s.d., n ≥ 3, triple mutant D842V, G652E, V658A): 0.54 ± 0.03 µM | EC50 (MDA-MB-175VII; [3]): 5.7 µM | EC50 (MDA-MB-175VII; read-out: CTG EC50 MDA-MB-175VII, single determinations, raw data of Supp. Tab. 2, independent experiments, unit from Supp. Tab. 2): 5.75 µM and 5.88 µM | EC50 (MDA-MB-175VII; read-out: CTG EC50 MDA-MB-175VII, mean ± s.d., n = 3, control cell line): 5.78 µM | Papp B→A at 2 h, 10 µM [1]: 3.02 ×10⁻⁶ cm/s | Papp A→B at 2 h, 10 µM [1, 4]: 12.5 ×10⁻⁶ cm/s | overall response rates [2]: more than 90% | GI50 (GIST-T1): 0.036 ± 0.01 µM | KIT CTG GR50 T1-D816E (T1-D816E): 67 ± 18 nM and 67 nM | GI50 (T1-T670I): 0.457 ± 0.24 µM

Papp B→A at 2 h, 10 µM [1]: 15.4 ± 16 ×10⁻⁶ cm/s | Papp A→B at 2 h, 10 µM ([1]; MDCK-MDR1, MDCKII-MDR1 (PappA→B), reference compounds, mean over routine assay runs): 1.9 ± 4.5 ×10⁻⁶ cm/s | permeability class of reference compound (Comment) (MDCKII-MDR1 cells): efflux
Compound: C[C@H]1O[C@@H](O[C@H]2[C@@H](O)C[C@H](O[C@H]3[C@@H](O)C[C@H](O[C@H]4CC[C@@]5(C)[C@H](CC[C@@H]6[C@@H]5C[C@@H](O)[C@]5(C)[C@@H](C7=CC(=O)OC7)CC[C@]65O)C4)O[C@@H]3C)O[C@@H]2C)C[C@H](O)[C@@H]1O [digoxin, reference compound]

Compound: CC(C)NCC(O)COc1cccc2ccccc12 (stereo not shown) [propranolol, reference compound]
permeability class of reference compound (Comment) (MDCKII-MDR1 cells): highly permeable | permeability class of reference compound (Comment) (MDCKII-MDR1 cells; listed as Propanolol): permeable | MDCKII-MDR1 (PappA→B) (MDCKII-MDR1 cells; reference compounds, mean over routine assay runs): 32 ± 10.3 10-6 cm/s
